Experimental data from US6444685B1, “N-(4-sulfonylaryl)Cyclylamine 2-hydroxyethylamines as beta-3 adrenergic receptor agonists” (Wyeth, priority 2000, dated 2002).

What was measured:
Type in all cases: cell-based
[1] = biological target: T1, human β2-adrenergic receptor (Homo sapiens, UniProt P07550); assay: cAMP accumulation (SPA) in CHO cells transfected with human β2 adrenergic receptor; conditions: for EC50: CHO cells transfected with human β2-AR, cAMP, 15 min incubation, 10^−8 to 10^−4 M, read-out: beta-2 EC50; for beta-2 (IA) maximal response relative to isoproterenol: IA = % activity compound / % activity isoproterenol at 10^−5 M, CHO human β2 cells
T1 construct: expressed in transfected cells; host or cells: CHO cells
Experimental: (§1) The ability of compounds of this invention to treat or inhibit disorders related to insulin resistance or hyperglycemia was established with representative compounds of this invention in the following standard pharmacological test procedures, which measured the binding selectivity to the β1, β2, and β3 adrenergic receptors. Binding to the receptors was measured in Chinese Hamster ovary (CHO) cells that were transfected with adrenergic receptors. The following briefly summarizes the procedures used and results obtained.
(§2) Transfection of CHO cells with β1 and β2 adrenergic receptors: CHO cells were transfected with human β1- or β2-adrenergic receptors as described in Tate, K. M., Eur. J. Biochem., 196:357-361 (1991).
(§3) Binding Procedure: Clones expressing receptor levels of 70 to 110 fmoles/mg protein were used in the test procedures. CHO cells were grown in 24-well tissue culture plates in Dulbecco's Modified Eagle Media with 10% fetal bovine serum, MEM non-essential amino acids, Penicillin-Streptompycin and Geneticin. On the day of test procedure, growth medium was replaced with preincubation media (Dulbecco's Modified Eagle Media and incubated for 30 minutes at 37° C. Preincubation medium was replaced with 0.2 ml treatment medium containing DMEM media containing 250 μM IBMX (isobutyl-1-methylxantine) plus 1 mM ascorbic acid with test compound dissolved in DMSO. Test compounds were tested over a concentration range of 10^−9 M to 10^−5 M for β3 cells and 10^−8 to 10^−4 M for β1 and β2 transfected cells. Isoproterenol (10^−5 M) was used as an internal standard for comparison of activity. Cells were incubated at 37° C. on a rocker for 30 min with the β3 cells and 15 min for β1 and β2 cells. Incubation was stopped with the addition of 0.2N HCl and neutralized with 2.5N NaOH. The plates, containing the cells and neutralized media, were stored at −20 degrees celsius until ready to test for cAMP using the SPA test kit (Amersham).
(§4) Data Analysis and Results: Data collected from the SPA test procedure were analyzed as per cent of the maximal isoproterenol response at 10^−5 M. Activity curves were plotted using the SAS statistical and graphics software. EC50 values were generated for each compound and the maximal response (IA) developed for each compound is compared to the maximal response of isoproternol at 10^−5 M from the following formula:
(§5) IA=% activity compound/% activity isoproterenol

[2] = biological target: T2, human β1-adrenergic receptor (Homo sapiens, UniProt P08588); assay: cAMP accumulation (SPA) in CHO cells transfected with human β1 adrenergic receptor; conditions: for EC50: CHO cells transfected with human β1-AR, cAMP, 15 min incubation, 10^−8 to 10^−4 M, read-out: beta-1 EC50; for beta-1 (IA) maximal response relative to isoproterenol: IA = % activity compound / % activity isoproterenol at 10^−5 M, CHO human β1 cells
T2 construct: expressed in transfected cells; host or cells: CHO cells
Experimental: as §1, §2, §3, §4, §5

[3] = biological target: T3, human β3 adrenergic receptor (Homo sapiens, UniProt P13945); assay: cAMP accumulation (SPA) in CHO cells transfected with human β3 adrenergic receptor; conditions: for EC50: CHO cells expressing human β3-AR, cAMP, 30 min incubation, 10^−9 M to 10^−5 M, read-out: beta-3 EC50; for beta-3 (IA) maximal response relative to isoproterenol: IA = % activity compound / % activity isoproterenol at 10^−5 M, CHO human β3 cells
T3 construct: Full length β3 AR clones (402 amino acids) containing the last 6 amino acids of hβ3— AR are prepared; expressed in transfected cells; host or cells: CHO cells
Experimental: as §1
Cloning of Human β3-AR Genomic DNA: cDNA was constructed by ligating four polymerase chain reaction (PCR) products using the following primers: an ATG-Narl fragment, sense primer 5′-[…]3′ and anti-sense primer 5′[…]3′; a Narl-Accl fragment, 5′[…]3′ as sense and 5′[…]3′ as anti-sense primer; an Accli-Styl fragment, sense primer 5′[…]3′ and anti-sense primer 5′[…]3′ and a Styl-TAG fragment, with sense primer 5′[…]3′ and anti-sense primer 5′[…]3′. The corresponding primer sequences are described in Mantzoros, C. S., et.al., Diabetes 45: 909-914 (1996). The four fragments are ligated into a pUC 18 plasmid (Gibco-BRL) and sequenced. Full length β3 AR clones (402 amino acids) containing the last 6 amino acids of hβ3— AR are prepared with the β3-βARpcDNA3from ATTC.
as §3, §4, §5

T2 sequence (P08588 whole entry): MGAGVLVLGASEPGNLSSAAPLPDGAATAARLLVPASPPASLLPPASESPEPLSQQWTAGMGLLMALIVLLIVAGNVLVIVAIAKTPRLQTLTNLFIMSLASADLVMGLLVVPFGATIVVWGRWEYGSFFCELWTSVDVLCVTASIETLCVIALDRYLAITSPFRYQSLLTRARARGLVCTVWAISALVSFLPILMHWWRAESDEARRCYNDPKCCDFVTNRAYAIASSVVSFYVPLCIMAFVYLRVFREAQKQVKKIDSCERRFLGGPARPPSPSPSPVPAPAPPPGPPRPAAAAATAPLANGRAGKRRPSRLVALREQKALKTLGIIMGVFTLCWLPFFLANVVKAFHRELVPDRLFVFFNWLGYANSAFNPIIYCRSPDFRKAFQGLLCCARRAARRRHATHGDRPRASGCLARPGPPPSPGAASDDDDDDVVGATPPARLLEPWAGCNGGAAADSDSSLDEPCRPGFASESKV
T3 sequence (P13945 whole entry): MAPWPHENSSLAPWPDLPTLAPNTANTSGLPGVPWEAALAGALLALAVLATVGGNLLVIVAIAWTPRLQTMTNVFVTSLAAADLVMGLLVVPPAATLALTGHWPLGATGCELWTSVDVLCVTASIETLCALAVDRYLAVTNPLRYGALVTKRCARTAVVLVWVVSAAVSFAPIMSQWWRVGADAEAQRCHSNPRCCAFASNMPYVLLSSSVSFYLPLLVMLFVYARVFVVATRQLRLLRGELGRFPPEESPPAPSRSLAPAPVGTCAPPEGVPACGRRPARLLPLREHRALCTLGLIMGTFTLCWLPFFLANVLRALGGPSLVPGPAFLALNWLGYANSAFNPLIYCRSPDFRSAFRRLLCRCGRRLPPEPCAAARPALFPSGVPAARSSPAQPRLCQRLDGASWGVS
T1 sequence (P07550 whole entry): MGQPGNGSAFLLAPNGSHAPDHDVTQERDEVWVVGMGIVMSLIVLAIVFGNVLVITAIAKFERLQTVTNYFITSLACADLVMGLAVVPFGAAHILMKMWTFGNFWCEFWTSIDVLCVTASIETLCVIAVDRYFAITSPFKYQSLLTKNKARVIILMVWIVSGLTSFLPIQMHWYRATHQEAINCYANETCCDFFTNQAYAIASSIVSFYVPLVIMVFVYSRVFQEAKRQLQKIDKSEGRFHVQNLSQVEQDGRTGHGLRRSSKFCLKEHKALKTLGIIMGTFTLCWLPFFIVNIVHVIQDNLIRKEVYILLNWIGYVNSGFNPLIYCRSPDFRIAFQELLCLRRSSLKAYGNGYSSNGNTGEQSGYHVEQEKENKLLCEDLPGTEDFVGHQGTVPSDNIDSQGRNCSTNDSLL

SMILES | EC50 [1] [nM] | beta-2 (IA) maximal response relative to isoproterenol [1] | EC50 [2] [nM] | beta-1 (IA) maximal response relative to isoproterenol [2] | EC50 [3] [nM] | beta-3 (IA) maximal response relative to isoproterenol [3]
CCOC(=O)[C@@H]1CCCN1S(=O)(=O)c1ccc(N2CCC(NC[C@H](O)c3ccc(O)c(NS(C)(=O)=O)c3)CC2)cc1 [Example 36, Ethyl (2S)-1-[(4-{4-[((2R)-2-Hydroxy-2-{4-hydroxy-3-[(methylsulfonyl)amino]phenyl}ethyl)amino]-1-piperidinyl}phenyl)sulfonyl]-2-pyrrolidinecarboxylate] | 720 | (0.19) | 4800 | (0.85) | 9 | (1)
CS(=O)(=O)Nc1cc([C@@H](O)CNC2CCN(c3ccc(S(=O)(=O)N4CCC[C@H]4C(=O)O)cc3)CC2)ccc1O [Example 39, (2S)-1-[(4-{4-[((2R)-2-Hydroxy-2-{4-hydroxy-3-[(methylsulfonyl)amino]-phenyl}ethyl)amino]-1-piperidinyl}phenyl)sulfonyl]-2-pyrrolidinecarboxylic Acid] |  | (0.23) | 10000 | (0.42) | 30 | (1)
CC(C)(C)OC(=O)CN(Cc1cc(F)ccc1F)S(=O)(=O)c1ccc(N2CCC(NC[C@H](O)c3ccc(O)c(NS(C)(=O)=O)c3)CC2)cc1 [Example 67, tert-Butyl {(2,5-difuorobenzyl)[(4-{4-[((2R)-2-hydroxy-2-{4-hydroxy-3-[(methylsulfonyl)amino]phenyl}ethyl)amino]piperidin-1-yl}phenyl)sulfonyl]-amino}acetate] |  | (0.17) | 1000 | (0.48) | 5 | (0.96)
CCOC(=O)CN(C(C)C)S(=O)(=O)c1ccc(N2CCC(NC[C@H](O)c3ccc(O)c(NS(C)(=O)=O)c3)CC2)cc1 [Example 44] | 2000 | (0.43) | 12000 | (0.71) | 3 | (0.95)
CCOC(=O)CN(CC1CC1)S(=O)(=O)c1ccc(N2CCC(NC[C@H](O)c3ccc(O)c(NS(C)(=O)=O)c3)CC2)cc1 [Example 28, [Cyclopropylmethyl-(4-{4-[(2R)-2-hydroxy-2-(4-hydroxy-3-methanesulfonylamino-phenyl)-ethylamino]-piperidin-1-yl}-benzenesulfonyl)-amino]-acetic Acid Ethyl Ester] | 6600 | (0.85) |  | (0.24) | 2 | (0.94)
CCOC(=O)CN(C)S(=O)(=O)c1ccc(N2CCC(NC[C@H](O)c3ccc(O)c(NS(C)(=O)=O)c3)CC2)cc1 [Example 25, [(4-{4-[(2R)-2-Hydroxy-2-(4-hydroxy-3-methanesulfonylamino-phenyl)-ethylamino]-piperidin-1-yl}-benzenesulfonyl)-methyl-amino]-acetic Acid Ethyl Ester] | 1430 | (0.37) | 1000 | (0.63) | 52 | (1)
CCCCN(Cc1ccccc1)S(=O)(=O)c1ccc(N2CCC(NC[C@H](O)COc3cccc4[nH]c(=O)[nH]c34)CC2)cc1 [Example 2, N-Benzyl-N-butyl-4-{4-[(2S)-2-hydroxy-3-(2-oxo-2,3-dihydro-1H-benzoimidazol-4-yloxy)-propylamino]-piperidin-1-yl}-benzenesulfonamide] |  | (0.03) |  | (0.16) | 94 | (1.1)
COC(=O)N(CC(=O)O)S(=O)(=O)c1ccc(N2CCC(NC[C@H](O)c3ccc(O)c(NS(C)(=O)=O)c3)CC2)cc1 [Example 60, [[(4-{4-[((2R)-2-Hydroxy-2-{4-hydroxy-3-[(methylsulfonyl)amino]phenyl}-ethyl)amino]piperidin-1-yl}phenyl)sulfonyl](methoxycarbonyl)amino]acetic Acid] | 10000 | (0.21) | 10000 | (0.18) | 21 | (1.1)
COC(=O)CNS(=O)(=O)c1ccc(N2CCC(NC[C@H](O)c3ccc(O)c(NS(C)(=O)=O)c3)CC2)cc1 [Example 57, Methyl 2-{[(4-{4-[((2R)-2-Hydroxy-2-{4-hydroxy-3-[(methylsulfonyl)amino]-phenyl}ethyl)amino]-1-piperidinyl}phenyl)sulfonyl]amino}acetate] |  | (0.18) |  | (0.18) | 6 | (0.85)
CS(=O)(=O)Nc1cc([C@@H](O)CNC2CCN(c3ccc(S(=O)(=O)N4CCN(CC(=O)O)CC4)cc3)CC2)ccc1O [Example 65] | 16000 | (0.67) |  | (0.23) | 160 | (0.93)
CC(C)CN(CC(=O)O)S(=O)(=O)c1ccc(N2CCC(NC[C@H](O)c3ccc(O)c(NS(C)(=O)=O)c3)CC2)cc1 [Example 34, [(4-{4-[(2R)-2-Hydroxy-2-(4-hydroxy-3-methanesulfonylamino-phenyl)-ethylamino]-piperidin-1-yl}-benzenesulfonyl)-isobutyl-amino]-acetic Acid] |  | (0.14) | 10000 | (0.49) | 6 | (1.1)
CS(=O)(=O)Nc1cc([C@@H](O)CNC2CCN(c3ccc(S(=O)(=O)NCC4CC4)cc3)CC2)ccc1O [Example 26, N-Cyclopropylmethyl-4-{4-[(2R)-2-hydroxy-2-(4-hydroxy-3-methanesulfonylamino-phenyl)-ethylamino]-piperidin-1-yl}-benzenesulfonamide] | 270 | (0.29) | 240 | (0.41) | 23 | (0.98)
O=c1[nH]c2cccc(OCC(O)CNC3CCN(c4ccc(S(=O)(=O)NCc5ccccc5)cc4)CC3)c2[nH]1 (stereo not shown) [Example 4, N-Benzyl-4-{4-[2-hydroxy-3-(2-oxo-2,3-dihydro-1H-benzoimidazol-4-yloxy)-propylamino]-piperidin-1-yl}-benzenesulfonamide] |  | (0) |  | (0.17) | 21 | (0.78)
CCCCN(Cc1ccccc1)S(=O)(=O)c1ccc(N2CCC(NCC(O)c3ccc(O)c(NS(C)(=O)=O)c3)CC2)cc1 (stereo not shown) [Example 3, N-Benzyl-N-butyl-4-{4-[2-hydroxy-2-(4-hydroxy-3-methanesulfonylamino-phenyl)-ethylamino]-piperidin-1-yl}-benzenesulfonamide] | 310 | (0.59) | 2100 | (0.66) | 15 | (1.1)
